Measured values taken from paper PMC12631912, “A Multifunctional Molecular Probe for Multimodal Imaging‐Guided Potent Photothermal/Photodynamic Therapy of Endometriosis” (Advanced Science, 2025).

Key:
EESCs [1] = test: Cellular internalization of probes by flow cytometry; assay type: cell-based, human; conditions: EESC, in Figure 3g
Procedure: Furthermore, the cellular internalization of the probes was quantitatively evaluated using flow cytometry. […] After these incubation periods, the cells were washed three times with PBS, trypsinized, and collected. The harvested cells were then analyzed using an Attune NxT flow cytometer (Invitrogen, USA). The data obtained was analyzed utilizing NovoExpress 1.4.0 software (Agilent, USA).

Ishikawa cells [2] = test: In vitro photothermal/photodynamic therapy, CCK-8 viability after laser; assay type: cell-based; conditions: CCK-8, 2 h incubation, 808 nm, 1.0 W cm^−2, 5 min, concentration of the quoted value not stated (range 2.5 to 50 µg mL^−1 ICG), mean ± SD, n = 4
Procedure: Ishikawa cells and EESCs were seeded in a 96‐well plate at a density of 1 × 10^4 cells per well and allowed to adhere overnight. […] Following this incubation, the cells were irradiated with an 808 nm laser (1.0 W cm^−2, 5 min). The viability of cells was measured using the CCK‐8 assay.

EMS lesions [3] = test: In vivo infrared thermography of EMS lesions; parameters: species or system BALB/c nude mice; conditions: EMS nude mice, ICG 500 µg kg^−1 i.v., 1 h post-injection, 808 nm laser 1.0 W cm^−2, within 5 min; n = 3
Procedure: As shown in previous references,^[ [19] ^] to establish a xenograft EMS model in nude mice, female BALB/c nude mice (5‐6 weeks, 18‐20 g) served as recipients, and female Sprague–Dawley rats (7‐9 weeks, 200–240 g) with regular 4–5 days estrous cycles were selected as donors after a week of acclimatization. Prior to surgery, nude mice received daily intramuscular β‐estradiol 17‐pentanoate (0.25 µg g^−1) for 3 days. The EMS model was induced by subcutaneous transplantation of ≈40 mg of rat uterine fragments into nude mice. The uterine horns from euthanized donors were sterilely collected, bisected, minced, and suspended in DMEM/F12 medium before injection. Nude mice then received β‐estradiol 17‐pentanoate (0.25 µg g^−1) injections every 2 days, and endometriotic lesions reaching 100 mm^3 were used for subsequent experiments.
To investigate the photothermal heating efficacy at lesion sites in EMS mice, in vivo infrared thermography studies were conducted. […] Thermal responses were monitored in real‐time using a digital thermographic camera (Fluke Ti27, IR Fusion Technology, USA). Infrared thermal images were captured, and temperature measurements were recorded. The temporal correlation between temperature elevation and laser irradiation duration was analyzed using AnalyzIR software (4.0.0).

EMS lesions [4] = test: In vivo photoacoustic imaging of EMS lesions; parameters: species or system BALB/c nude mice; conditions: EMS nude mice, ICG 4 µg g^−1 i.v., imaging to 48 h; n = 3
Procedure: PAI was conducted using a TomoWave LOIS‐3D series photoacoustic imaging system before injection and at 30 min, 5 h, 24 h, and 48 h post‐injection. Photoacoustic image processing and analysis were conducted using LOIS View 3D software and ImageJ 1.53e. ROIs were manually delineated on axial photoacoustic images to quantify lesion signal intensity (SI).

EMS lesions [5] = test: In vivo T1-weighted MRI of EMS lesions; parameters: species or system Wistar female rats; conditions: EMS rats, 4.5 mg Gd per kg i.v., 30 min and 5 h post-injection, 3.0 T
Procedure: Prior to the imaging procedure, the rats were anesthetized through intraperitoneal injection of 1% sodium pentobarbital at a dosage of 45 mg kg^−1. Following anesthesia, the rats were positioned inside a 3.0 T MRI scanner sourced from the First Hospital of Sun Yat‐sen University.
Prior to drug administration, the rats underwent T 1‐weighted imaging using the fast spin‐echo sequence with the following parameters: TR = 400 ms; TE = 12 ms; FOV = 80 mm × 80 mm; matrix size = 672 × 672; voxel size = 0.24 mm × 0.24 mm; slice thickness = 1 mm; flip angle = 150°; and NSA = 5.
T 1‐weighted imaging using the fast spin‐echo sequence was repeated at 30 min and 5 h post‐injection, respectively, with adjusted parameters: TR = 425 ms; TE = 12 ms; FOV = 80 mm × 80 mm; matrix size = 384 × 384; voxel size = 0.42 mm × 0.42 mm; slice thickness = 1 mm; flip angle = 150°; and NSA = 7.

endometriotic lesions = test: In vivo anti-EMS efficacy, autologous transplantation model; parameters: species or system Wistar female rats; conditions: EMS rats, i.v. every 3 days, six times, 808 nm 1.0 W cm^−2 10 min 1 h post-administration; n = 4
Procedure: Mice were injected with different formulations via the tail vein every 3 days until euthanasia, with an ICG dose of 3 mg kg^−1. For groups receiving NIR laser irradiation, the procedure was conducted 1 h post‐administration with a power of 1.0 W cm^− ^2 for 10 min. Mouse body weights were recorded every 3 days, and xenograft growth was monitored using a vernier caliper. EMS rats (n = 4) underwent the same treatment strategy after 28 days of autotransplantation, with body weight changes monitored every 3 days. After 18 days of treatment, rats were euthanized for autograft size measurement. Nude mice were euthanized after 18 days for graft extraction, followed by H&E staining and TUNEL assay. Briefly, sections were deparaffinized, hydrated, stained with H&E, and visualized under an optical microscope.

[6] = UV absorption and fluorescence emission spectra; assay type: physicochemical; conditions: in PBS, cRGD-ILD C ICG = 10 µg mL^−1, ICG 5 µg/mL
Procedure: The ^1H NMR spectra were conducted utilizing a Varian Unity 400 MHz Spectrometer ([…]) in a variety of deuterated solvents. ESI‐MS were obtained with a Thermo Scientific LTQ XL mass spectrometer (Thermo, USA). UV absorption spectra were measured by a Unico UV‐2000 UV–vis Spectrophotometer (Shanghai, China). Photoluminescence excitation and emission spectra were recorded using an FSP920‐combined Time Resolved and Steady State Fluorescence Spectrometer (Edinburgh, UK), equipped with a 450‐W xenon lamp. Both the UV and fluorescence spectrophotometers were scanned within the wavelength range of 650–850 nm.

EESCs [7] = test: CCK-8 cytotoxicity without laser irradiation; assay type: cell-based, human; conditions: CCK-8, 24 h incubation, ICG concentration up to 300 µg mL^−1
Procedure: (§1) After 24 h, the medium was replaced with fresh medium containing 10% CCK‐8 reagent and incubated for an additional 2 h. The absorbance at 450 nm was measured using a Synergy 2 multimode microplate reader (BioTek, USA), with the wells without cells serving as blanks. All experiments were performed in triplicate.

Ishikawa cells [8] = test: CCK-8 cytotoxicity without laser irradiation; assay type: cell-based; conditions: CCK-8, 24 h incubation, ICG concentration up to 300 µg mL^−1
Procedure: as §1

[9] = In vivo fluorescence imaging, off-target effects and clearance in healthy mice; parameters: species or system BALB/c nude mice

| Substance | internalized probes by flow cytometry (EESCs [1]; C ICG = 2.5 µg mL^−1, 1 h incubation) | internalized probes by flow cytometry (EESCs [1]; C ICG = 2.5 µg mL^−1, 4 h incubation) | cell viability after laser irradiation (Ishikawa cells [2]) | localized (maximum) temperature at the EMS lesion (EMS lesions [3]) | PA signal in lesions over time (EMS lesions [4]) | T 1-weighted signal intensity at the lesion site (EMS lesions [5]) | inhibition of lesion growth, probe + laser (endometriotic lesions) | fluorescence emission peak ([6]; λex = 755 nm) | absorption peak [6] | cell viability without laser irradiation (EESCs [7]) | cell viability without laser irradiation (Ishikawa cells [8]) | tissue distribution by serial in vivo fluorescence imaging ([9]; healthy BALB/c nude mice, ICG 1000 µg kg^−1 i.v.) | fluorescence signal as % of the 24 h level ([9]; healthy BALB/c nude mice, ICG 1000 µg kg^−1 i.v., within 7 days, n = 3) | ex vivo fluorescence of major organs ([9]; healthy nude mice, 10 days post-injection, heart, liver, spleen, lungs, kidneys) |
| --- | --- | --- | --- | --- | --- | --- | --- | --- | --- | --- | --- | --- | --- | --- |
| ICG‐lys‐DTPA@Gd [ILD] | 74.68% | 94.41% | 48.41 ± 1.74% | 34.5 °C | rapid signal attenuation | no significant increase | superior efficacy in inhibiting lesion growth compared to the other groups |  |  |  |  |  |  |  |
| c(RGDyK)‐ICG‐lys‐DTPA@Gd (head to tail) [cRGD‐ILD, targeting theranostic probe integrating cRGD peptide, ICG fragment and DTPA@Gd complex] |  |  | 23.8 ± 1.36% |  | sustained elevated PA signal intensities at 5 and 24 h | notable enhancement | superior efficacy in inhibiting lesion growth compared to the other groups | 764 nm | 755 nm | above 90% | above 90% | no specific tissue distribution | ≈ 14.75% | minimal residual fluorescence |
